Test results as given in ChEMBL document CHEMBL1150704, “Microbial hydroxylation of quadrone to 8a-hydroxyquadrone” (J Nat Prod, 1987).
The source made the active and inactive calls. The calls are words filed in the database; no cut-off is given here.

System: P388
Test: Cytotoxicity against mouse P388 cells
Assay type: functional, cell-based

## CC1(C)C[C@@]23[C@@H]4CC(=O)[C@@H]2COC(=O)[C@]3(O)CC[C@H]41
  Activity: inactive
